According to patent US20160201132A1, “GENE EXPRESSION BIOMARKERS OF LAQUINIMOD RESPONSIVENESS” (Teva Pharmaceutical Industries Ltd., priority 2013, published 2016):

Tested on: PBMC of RRMS patients
Test: Gene expression microarray analysis (HG-U133A-2) of PBMC from RRMS patients treated with LAQ, ancillary study to ALLEGRO
Format: in vivo, human
Details: for Fold-Change (1.0 vs. 0.0): one month of treatment
Description: The goal of this ancillary study was to characterize gene expression changes and corresponding biological mechanisms induced in PBMC of RRMS patients by LAQ treatment. According to ALLEGRO clinical trial inclusion criteria, 25 patients were randomly assigned to receive LAQ (n=13, age 38.8±2.3 years, female/male ratio: 8/5) or placebo (n=12, age 37.2±3.4 years, female/male ratio: 8/4).
Peripheral blood samples were obtained from RRMS patients at baseline before start of LAQ treatment or placebo, after 0, 1, 6 and 24 month of treatment (visit 0, 1, 6 and 7 according to ALLEGRO clinical trial protocol correspondently) for gene microarray analysis.
Briefly, 1) Peripheral blood mononuclear cells (PBMC) were obtained from RRMS patients that participated in ALLEGRO and were treated daily with 0.6 mg LAQ or placebo. PBMC were subjected for gene expression analysis (HU-133A-2-Affymatrix arrays) at baseline and at 1 and 6 months of LAQ treatment; 2) Data was analyzed by Partek Genomics Solution software. Most informative genes (MIGs) were defined as those that differentiated between groups with p<0.01. Gene functional annotation, enrichment and pathway analysis were performed by Ingenuity software. For each time point, genes that changed in placebo group were excluded from further analysis; and 3) Verification of LAQ related mechanism was performed by Western blot.
PBMC were extracted from 15 ml peripheral blood, separated by Ficoll-Hypaque gradient. Total RNA was extracted using both Trizol (Invitrogen, USA) and Phase-Lock-Gel columns (Eppendorf, Germany) including a DNase digestion step. RNA integrity was assessed by RNA Experion automated electrophoresis system (Bio-Rad Laboratories, Hercules, Calif.).
Probe synthesis using 3 μg total RNA, hybridization, detection, and scanning was performed according to the standard Affymetrix, Inc. USA protocols; cDNA was synthesized using the Two-Cycle cDNA Synthesis Kit (Affymetrix, Inc., USA), and in-vitro transcription performed with the GeneChip IVT Labeling Kit (Affymetrix, Inc., USA). The biotin-labeled IVT-RNA was hybridized to HG-U133A-2 arrays containing 18,400 gene transcripts, each corresponding to 14,500 well-annotated human genes, washed in a GeneChip Fluidics Station 450 (Hewlett Packard, USA, GeneArray-™ scanner G2500A) and scanned according to the manufacturer's protocol (Affymetrix, Inc., USA).
Data analysis was performed on Partek Genomics Solution software (www.partek.com; Partek Incorporated, St. Louis, Mo.). Expression values were computed from raw CEL files by applying the Robust Multi-Chip Average (RMA) background correction algorithm. RMA correction included: 1) values background correction; 2) quintile normalization; 3) log 2 transformation; and 4) median polish summarization. The ANOVA, Repeated Measures and correlation analysis implicated in Partek software ware applied to evaluate LAQ effects. Most informative genes MIGs were defined as those that differentiated between experimental groups with p<0.01. All p-values were calculated for False Discovery Rate (FDR) multiple test correction at p=0.05.
Additionally, significance of individual genes was tested by parametric T-test and non parametric Mann-Whitney test using Bootstrapping approach based on repeated permutations of the data with 5% FDR for multiple testing.
Gene functional annotation, enrichment, and pathway analyses to identify the leading biological pathways that operated under LAQ treatment were performed by Ingenuity Pathways Analysis software (www.ingenuity.com).
ANOVA analysis was used to compare PBMC gene expression after 1, 6 or 24 month of LAQ treatment with baseline gene expression.
For each time point inventors performed analysis source of variation in dataset. (FIG. 1). Age, gender and batch effects were considered as confounders regarding LAQ or Placebo related changes. For each time point genes associated with Placebo effect were evaluated and excluded from further analysis. […]

[1] = 1 month of LAQ 0.6 mg/day vs baseline
[2] = 6 months of LAQ 0.6 mg/day vs baseline
[3] = 1564 FDR genes, combined 6 and 24 months

CCN(C(=O)c1c(O)c2c(Cl)cccc2n(C)c1=O)c1ccccc1 [LAQ, 5-chloro-N-ethyl-4-hydroxy-1-methyl-2-oxo-N-phenyl-1,2-dihydroquinoline-3-carboxamide]
# of genes p < 0.01 (LAQ related MIGs, ANOVA) [1]: 354
Down regulated genes (LAQ related MIGs) [1]: 348
Up-regulated genes (LAQ related MIGs) [1]: 6
# of genes p < 0.01 (LAQ related MIGs, ANOVA) [2]: 1562
Down regulated genes (LAQ related MIGs) [2]: 1552
Up-regulated genes (LAQ related MIGs) [2]: 10
p, suppression of genes related to the TGFB pathway (6 months or longer treatment): 1.9*10^−2
genes (n), suppression of cell migration function [3]: 233
genes (n), suppression of chemotaxis [3]: 78
p, suppression of cell migration function [3]: 4.5*10^−14
p, suppression of chemotaxis [3]: 4.3*10^−5
Fold-Change (1.0 vs. 0.0) (202280_at (gene symbol not given)): −1.157
Fold-Change (1.0 vs. 0.0) (ABLIM3 205730_s_at): −1.542
Fold-Change (1.0 vs. 0.0) (ALDOB 204704_s_at): −1.119
Fold-Change (1.0 vs. 0.0) (APBA2 209871_s_at): −1.163
Fold-Change (1.0 vs. 0.0) (ARHGEF10 215139_at): −1.176
Fold-Change (1.0 vs. 0.0) (ARMCX6 /// LOC653354 214749_s_at): −1.178
Fold-Change (1.0 vs. 0.0) (ASAP2 206414_s_at): −1.773
Fold-Change (1.0 vs. 0.0) (C1orf116 219476_at): −1.222
Fold-Change (1.0 vs. 0.0) (CA5A 207421_at): −1.243
Fold-Change (1.0 vs. 0.0) (CALD1 201617_x_at): −1.326
Fold-Change (1.0 vs. 0.0) (CALD1 212077_at): −1.896
Fold-Change (1.0 vs. 0.0) (CAPRIN1 200722_s_at): −1.157
Fold-Change (1.0 vs. 0.0) (CCDC93 209689_at): −1.133
Fold-Change (1.0 vs. 0.0) (CD84 211190_x_at): −1.166
Fold-Change (1.0 vs. 0.0) (CDC14B 208022_s_at): −1.4133
Fold-Change (1.0 vs. 0.0) (CLDN5 204482_at): −1.364
Fold-Change (1.0 vs. 0.0) (CTDSPL 201905_s_at): −1.468
Fold-Change (1.0 vs. 0.0) (DLG4 210684_s_at): −1.187
Fold-Change (1.0 vs. 0.0) (DNM3 209839_at): −1.8
Fold-Change (1.0 vs. 0.0) (FABP7 205030_at): −1.176
Fold-Change (1.0 vs. 0.0) (FAM12B 220759_at): −1.1468
Fold-Change (1.0 vs. 0.0) (FBXO7 201178_at): −1.135
Fold-Change (1.0 vs. 0.0) (FBXW7 218751_s_at): −1.112
Fold-Change (1.0 vs. 0.0) (FSTL1 208782_at): −1.694
Fold-Change (1.0 vs. 0.0) (GNAS 200780_x_at): −1.158
Fold-Change (1.0 vs. 0.0) (GNAS 200981_x_at): −1.1585
Fold-Change (1.0 vs. 0.0) (GNAS 212273_x_at): −1.156
Fold-Change (1.0 vs. 0.0) (GNAS 214548_x_at): −1.159
Fold-Change (1.0 vs. 0.0) (GNB5 207124_s_at): −1.1663
Fold-Change (1.0 vs. 0.0) (GNB5 211871_x_at): −1.159
Fold-Change (1.0 vs. 0.0) (GP1BA 207389_at): −1.548
Fold-Change (1.0 vs. 0.0) (GPRASP1 204793_at): −1.16
Fold-Change (1.0 vs. 0.0) (GRAP2 208406_s_at): −1.394
Fold-Change (1.0 vs. 0.0) (GSPT1 217595_at): −1.116
Fold-Change (1.0 vs. 0.0) (GUCY1B3 203817_at): −1.73
Fold-Change (1.0 vs. 0.0) (H2BFS /// HIST1H2BK 208579_x_at): −1.481
Fold-Change (1.0 vs. 0.0) (HIST1H2AC 215071_s_at): −1.628
Fold-Change (1.0 vs. 0.0) (HIST1H2AJ 208583_x_at): −1.278
Fold-Change (1.0 vs. 0.0) (HIST1H2BK 209806_at): −1.418
Fold-Change (1.0 vs. 0.0) (HLA-E 217456_x_at): −1.062
Fold-Change (1.0 vs. 0.0) (IGF2BP3 203819_s_at): −1.72
Fold-Change (1.0 vs. 0.0) (ITGB1 211945_s_at): −1.17
Fold-Change (1.0 vs. 0.0) (ITGB3 204628_s_at): −1.579
Fold-Change (1.0 vs. 0.0) (ITGB3 215240_at): −1.589
Fold-Change (1.0 vs. 0.0) (ITGB5 201125_s_at): −1.713
Fold-Change (1.0 vs. 0.0) (LIMS1 207198_s_at): −1.445
Fold-Change (1.0 vs. 0.0) (LIMS1 212687_at): −1.3332
Fold-Change (1.0 vs. 0.0) (LOC150776 /// SMPD4 207856_s_at): −1.0672
Fold-Change (1.0 vs. 0.0) (LOC157627 214839_at): 1.326
Fold-Change (1.0 vs. 0.0) (LUC7L2 220099_s_at): −1.155
